Results taken from BindingDB's records for doi:10.7270/Q2HM56V2 (The Scripps Research Institute Molecular Screening Center, 2008).

Target: T1, Signal transducer and activator of transcription 1-alpha/beta (Homo sapiens, UniProt P42224)
T1 sequence (P42224 whole entry): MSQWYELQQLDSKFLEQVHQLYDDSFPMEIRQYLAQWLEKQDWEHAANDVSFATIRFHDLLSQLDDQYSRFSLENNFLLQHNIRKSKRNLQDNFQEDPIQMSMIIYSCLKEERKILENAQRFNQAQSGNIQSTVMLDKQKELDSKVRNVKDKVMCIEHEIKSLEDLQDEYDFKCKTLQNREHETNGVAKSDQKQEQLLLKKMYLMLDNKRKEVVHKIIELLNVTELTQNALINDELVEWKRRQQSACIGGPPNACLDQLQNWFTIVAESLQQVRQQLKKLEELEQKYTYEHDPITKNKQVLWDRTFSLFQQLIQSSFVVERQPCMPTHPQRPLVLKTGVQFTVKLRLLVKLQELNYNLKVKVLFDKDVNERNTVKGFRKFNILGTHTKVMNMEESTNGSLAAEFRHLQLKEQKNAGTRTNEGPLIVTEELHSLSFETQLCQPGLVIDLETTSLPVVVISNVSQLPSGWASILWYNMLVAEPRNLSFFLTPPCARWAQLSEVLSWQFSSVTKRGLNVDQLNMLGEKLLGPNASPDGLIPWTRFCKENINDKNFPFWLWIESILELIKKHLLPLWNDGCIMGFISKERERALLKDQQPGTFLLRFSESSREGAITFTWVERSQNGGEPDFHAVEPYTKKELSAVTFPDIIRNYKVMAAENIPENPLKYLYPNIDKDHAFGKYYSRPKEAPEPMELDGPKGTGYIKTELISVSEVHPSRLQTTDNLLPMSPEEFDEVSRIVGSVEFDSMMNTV
Experiment: PubChem AID 1406

Cc1[nH]n(-c2ccccc2)c(=O)c1C=C1C(=O)NC(=O)NC1=O
EC50: > 55.7 µM
